Format in all cases: cell-based
Test [1] concerns the target T1, FKBP1A (FKBP12)-calcineurin PPP3CA interaction (Homo sapiens, UniProt P62942).
T1 construct: expressed in transfected cells; host or cells: HEK293T
Kind of test: MAPPIT-derivative assay, FKBP1A bait receptor fusion (pSEL-FKBP1A) with gp130 fusion of calcineurin PPP3CA catalytic subunit. To be noted: dose-response; without or with co-expression of PPP3R2 regulatory subunit. As for the experimental part: (§1) Luciferase activity was measured 24 hours after test compound treatment using the Luciferase Assay System kit (PROMEGA, Madison, Wis.) with an Ensight plate reader (PERKIN ELMER LIFE SCIENCES, Waltham, Mass.). […] Error bars represent standard deviations. Curves were fit using 4-parameter nonlinear regression in […] PRISM software.

In test [2] the target is T2, CRBN with proteins of a human ORF(eome) cDNA library (Homo sapiens, UniProt Q96SW2).
T2 construct: expressed in transfected cells; host or cells: HEK293T
In words: MAPPIT-derivative cell microarray screen of a human ORF(eome) cDNA library with CRBN bait (pSEL-CRBN). To be noted: CC-220 10 μM; four ORF cDNAs confirmed in dose-response. As for the experimental part: In order to identify ligand-induced CRBN substrates, or neosubstrates, a MAPPIT cell microarray screen was performed using the procedure described in Lievens, et al. “Proteome-scale binary interactomics in human cells.” Molecular & Cellular Proteomics 15.12 (2016): 3624-3639. […] These transfected cells were then added to microarray screening plates containing a prey gp130 fusion expression plasmid collection covering over 15,000 ORFs. Each spot in the microarray contained a different gp130-ORF fusion expression plasmid, as well as a STAT3-responsive fluorescence protein-encoding reporter plasmid. CRBN bait transfected cells landing and attaching on these spots therefore become transfected as well with the gp130-ORF prey plasmid and the reporter plasmid, resulting in a different CRBN-ORF combination being tested in the cells on every different microarray spot. Twenty-four hours after transfection cells were differentially stimulated with erythropoietin with and without the CRBN ligand CC-220 (10 μM), and reporter signal (GFP-like fluorescence reporter) was read out 48 hours later.

The next test addresses T3, CRBN-GSPT1 interaction (Homo sapiens, UniProt Q96SW2).
T3 construct: expressed in transfected cells; host or cells: HEK293T
In words: MAPPIT-derivative assay, CRBN bait receptor fusion (pSEL-CRBN) with gp130-GSPT1 (domain 2+3), luciferase reporter in HEK293T cells. As to conditions: dose-response, EPO-stimulated, 24 hours compound treatment. The text has this:
(§2) In order to identify ligand-induced CRBN substrates, or neosubstrates, here we use a derivative of the MAPPIT assay, applying the procedure described in Lemmens, et al. “MAPPIT, a mammalian two-hybrid method for in-cell detection of protein-protein interactions,” Methods Mol Biol. 2015; 1278:447-55. The traditional MAPPIT assay has been used to monitor protein-protein interactions. A bait protein (protein A) is expressed as a fusion protein in which it is genetically fused to an engineered intracellular receptor domain of the leptin receptor, which is itself fused to the extracellular domain of the erythropoietin (Epo) receptor. […] Activation of STAT3 can be monitored by introduction of a STAT3-responsive reporter gene, including a luciferase-encoding gene or a gene encoding a fluorescent marker such as GFP or some other type of Fluorescent Protein (EGFP, etc.). […]
(§3) In this Example 1, we used a derivative of the MAPPIT assay that we developed specifically for use in determining CRBN-ligand induced protein interactions, i.e. using a specific CRBN bait protein and assaying for ligand-dependent induction of protein complex formation. The CRBN bait protein is expressed as a fusion with the MAPPIT chimeric membrane receptor and the interacting target protein is fused with the cytoplasmic gp130 receptor fragment (gp130-IKZF1(isoform 7), gp130-target X, gp130-GSPT1(domain 2+3) or gp130-GSPT2). […]
(In general: Reporter assays use an easily measured gene product as a stand-in for the process of interest.)

In a further test the target is T4, CRBN-GSPT2 interaction (Homo sapiens, UniProt Q96SW2).
T4 construct: expressed in transfected cells; host or cells: HEK293T
In words: MAPPIT-derivative assay, CRBN bait receptor fusion (pSEL-CRBN) with gp130-GSPT2, luciferase reporter in HEK293T cells. To be noted: dose-response, EPO-stimulated, 24 hours compound treatment.
From the text: as §2, §3

Test [3] has as its target T5, FKBP1A (FKBP12)-MTOR (FRB domain) interaction (Homo sapiens, UniProt P62942).
T5 construct: expressed in transfected cells; host or cells: HEK293T
In words: MAPPIT-derivative assay, FKBP1A bait receptor fusion (pSEL-FKBP1A) with gp130-MTOR (FRB domain). As to conditions: dose-response, HEK293T, EPO-stimulated. As for the experimental part:
as §1
Luciferase activity was measured 24 hours after test compound treatment using the Luciferase Assay System kit (PROMEGA, Madison, Wis.) with an Ensight plate reader (PERKIN ELMER LIFE SCIENCES, Waltham, Mass.). […] Error bars represent standard deviations.

These results are taken from US20230116707A1, “DETECTION OF NOVEL DEGRADATION-RELATED INTERACTIONS” (Orionis Biosciences, Inc., priority 2019, published 2023).

Structures are written as SMILES.

T1 sequence (P62942 whole entry, other chains not shown): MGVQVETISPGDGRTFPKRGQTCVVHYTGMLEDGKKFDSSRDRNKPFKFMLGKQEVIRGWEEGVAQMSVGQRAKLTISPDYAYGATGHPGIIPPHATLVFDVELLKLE
T1 sequence (Q96LZ3 whole entry partner, other chains not shown): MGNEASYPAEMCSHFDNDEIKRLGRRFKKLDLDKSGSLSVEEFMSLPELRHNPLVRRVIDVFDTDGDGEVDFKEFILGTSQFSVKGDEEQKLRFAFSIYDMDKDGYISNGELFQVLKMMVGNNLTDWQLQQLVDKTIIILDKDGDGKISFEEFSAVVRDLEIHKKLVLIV
T5 sequence (P62942 whole entry, the tested form may be a part): as the sequence (P62942 whole entry, other chains not shown) above
T5 sequence (P42345 2012-2144 partner limits assumed): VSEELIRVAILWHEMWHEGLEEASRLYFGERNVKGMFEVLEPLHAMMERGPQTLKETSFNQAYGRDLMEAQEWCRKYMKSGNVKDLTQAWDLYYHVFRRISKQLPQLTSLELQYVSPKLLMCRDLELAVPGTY
T2 sequence (Q96SW2 whole entry): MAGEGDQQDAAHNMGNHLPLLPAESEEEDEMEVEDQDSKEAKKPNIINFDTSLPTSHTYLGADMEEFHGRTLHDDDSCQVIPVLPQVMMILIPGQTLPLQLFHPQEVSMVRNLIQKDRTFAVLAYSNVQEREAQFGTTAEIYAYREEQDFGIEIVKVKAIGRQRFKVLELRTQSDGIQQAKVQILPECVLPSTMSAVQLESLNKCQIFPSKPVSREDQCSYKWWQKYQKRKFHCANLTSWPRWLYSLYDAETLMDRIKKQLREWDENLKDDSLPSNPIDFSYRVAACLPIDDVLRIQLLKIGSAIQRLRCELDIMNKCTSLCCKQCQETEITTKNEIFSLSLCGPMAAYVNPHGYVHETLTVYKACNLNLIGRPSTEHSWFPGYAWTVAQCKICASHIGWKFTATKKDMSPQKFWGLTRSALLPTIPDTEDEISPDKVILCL
T2 sequence (Q16531 whole entry partner): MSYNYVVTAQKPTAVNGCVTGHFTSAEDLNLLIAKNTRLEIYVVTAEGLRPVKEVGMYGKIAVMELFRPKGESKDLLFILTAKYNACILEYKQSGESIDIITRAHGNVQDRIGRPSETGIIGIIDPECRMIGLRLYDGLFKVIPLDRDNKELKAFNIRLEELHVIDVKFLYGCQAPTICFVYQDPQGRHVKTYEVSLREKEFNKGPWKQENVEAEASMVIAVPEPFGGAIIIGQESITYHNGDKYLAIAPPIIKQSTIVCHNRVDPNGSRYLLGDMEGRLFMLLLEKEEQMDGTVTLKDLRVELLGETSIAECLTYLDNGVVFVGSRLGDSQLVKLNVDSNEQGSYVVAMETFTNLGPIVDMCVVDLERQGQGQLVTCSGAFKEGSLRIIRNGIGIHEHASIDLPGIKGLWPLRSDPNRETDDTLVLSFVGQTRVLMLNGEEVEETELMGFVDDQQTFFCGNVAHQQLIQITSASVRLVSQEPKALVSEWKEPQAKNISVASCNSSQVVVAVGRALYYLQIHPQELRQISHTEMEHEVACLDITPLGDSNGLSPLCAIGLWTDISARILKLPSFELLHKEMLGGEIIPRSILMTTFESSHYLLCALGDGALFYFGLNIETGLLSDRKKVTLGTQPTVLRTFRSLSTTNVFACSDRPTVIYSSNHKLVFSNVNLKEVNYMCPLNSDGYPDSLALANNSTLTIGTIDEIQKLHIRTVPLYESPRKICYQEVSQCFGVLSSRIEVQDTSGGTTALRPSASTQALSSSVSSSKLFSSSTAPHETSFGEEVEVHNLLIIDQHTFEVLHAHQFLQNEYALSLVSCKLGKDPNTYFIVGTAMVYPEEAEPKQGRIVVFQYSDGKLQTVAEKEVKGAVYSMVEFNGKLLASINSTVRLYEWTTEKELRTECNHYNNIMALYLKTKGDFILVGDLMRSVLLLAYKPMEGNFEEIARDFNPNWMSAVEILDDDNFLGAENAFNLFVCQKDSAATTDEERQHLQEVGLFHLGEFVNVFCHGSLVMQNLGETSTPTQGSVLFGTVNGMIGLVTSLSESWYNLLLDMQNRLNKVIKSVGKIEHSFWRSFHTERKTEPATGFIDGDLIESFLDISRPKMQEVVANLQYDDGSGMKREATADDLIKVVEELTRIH
T4 sequence (Q96SW2 whole entry): as the sequence (Q96SW2 whole entry) above
T4 sequence (Q8IYD1 whole entry partner): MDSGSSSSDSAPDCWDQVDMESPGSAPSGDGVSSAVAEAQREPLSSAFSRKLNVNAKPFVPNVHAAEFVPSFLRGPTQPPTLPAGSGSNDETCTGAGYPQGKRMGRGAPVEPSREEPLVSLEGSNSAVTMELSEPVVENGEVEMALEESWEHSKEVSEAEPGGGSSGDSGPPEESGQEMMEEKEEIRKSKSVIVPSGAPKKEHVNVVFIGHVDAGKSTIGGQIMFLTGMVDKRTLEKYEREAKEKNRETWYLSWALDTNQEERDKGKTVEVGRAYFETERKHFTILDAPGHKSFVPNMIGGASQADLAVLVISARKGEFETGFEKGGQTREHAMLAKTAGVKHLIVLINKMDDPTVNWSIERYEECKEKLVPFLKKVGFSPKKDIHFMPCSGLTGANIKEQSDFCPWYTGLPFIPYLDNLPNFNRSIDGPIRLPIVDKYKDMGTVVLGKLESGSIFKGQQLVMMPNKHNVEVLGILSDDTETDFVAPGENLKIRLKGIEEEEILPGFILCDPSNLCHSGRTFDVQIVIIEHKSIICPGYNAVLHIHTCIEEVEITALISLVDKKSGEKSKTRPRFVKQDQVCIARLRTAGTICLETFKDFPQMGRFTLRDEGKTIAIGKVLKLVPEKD
T4 sequence (Q16531 whole entry partner): as the sequence (Q16531 whole entry partner) above
T3 sequence (Q96SW2 whole entry): as the sequence (Q96SW2 whole entry) above
T3 sequence (P15170 299-495 partner limits assumed): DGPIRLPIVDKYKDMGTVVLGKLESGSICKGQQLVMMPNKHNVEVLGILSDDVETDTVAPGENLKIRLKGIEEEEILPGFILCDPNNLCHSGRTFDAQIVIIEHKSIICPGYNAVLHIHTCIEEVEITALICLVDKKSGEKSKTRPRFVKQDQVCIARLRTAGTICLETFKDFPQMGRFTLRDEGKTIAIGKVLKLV
T3 sequence (Q16531 whole entry partner): as the sequence (Q16531 whole entry partner) above

In the case of `C=CC[C@@H]1/C=C(\C)C[C@H](C)C[C@H](OC)[C@H]2O[C@@](O)(C(=O)C(=O)N3CCCC[C@H]3C(=O)O[C@H](/C(C)=C/[C@@H]3CC[C@@H](O)[C@H](OC)C3)[C@H](C)[C@@H](O)CC1=O)[C@H](C)C[C@@H]2OC` [FK506, tacrolimus], the “compound-dependent binding of PPP3CA to FKBP1A (reporter signal)” value in test [1] is recorded as “binding of PPP3CA can be monitored”.

Take `O=C1CC[C@H](N2Cc3c(OCc4ccc(CN5CCOCC5)cc4)cccc3C2=O)C(=O)N1` [CC-220]: in test [2], the “fluorescence reporter signal, ORF proteins recruited to CRBN” value is reported as “significant induction of signal is observed for a number of ORF cDNAs”. Turning to `Cc1ccc(NC(=O)NCc2ccc3c(c2)CN(C2CCC(=O)NC2=O)C3=O)cc1Cl` (stereo not drawn) [CC-885], the “compound-induced recruitment of GSPT1 to CRBN (reporter signal)” value at CRBN-GSPT1 interaction was “only recruited through CC-885”. Further, on CRBN-GSPT2 interaction, the “compound-induced recruitment of GSPT2 to CRBN (reporter signal)” value was “only recruited through CC-885”. In the case of `CO[C@H]1C[C@@H]2CC[C@@H](C)[C@@](O)(O2)C(=O)C(=O)N2CCCC[C@H]2C(=O)O[C@H]([C@H](C)C[C@@H]2CC[C@@H](OCCO)[C@H](OC)C2)CC(=O)[C@H](C)/C=C(\C)[C@@H](O)[C@@H](OC)C(=O)[C@H](C)C[C@H](C)/C=C/C=C/C=C/1C` [everolimus], in test [3], the “compound-induced recruitment of MTOR to FKBP1A (reporter signal)” value is listed as “compound-induced recruitment of MTOR is detected”.

Consider `CC[C@@H]1/C=C(\C)C[C@H](C)C[C@H](OC)[C@H]2O[C@@](O)(C(=O)C(=O)N3CCCC[C@H]3C(=O)O[C@H](/C(C)=C/[C@@H]3CC[C@H](Cl)[C@H](OC)C3)[C@H](C)[C@@H](O)CC1=O)[C@H](C)C[C@@H]2OC` [pimecrolimus], for which, in test [1], the “compound-dependent binding of PPP3CA to FKBP1A (reporter signal)” value was “binding of PPP3CA can be monitored”.
